{"source": "patent US11331299B2", "about": "“Medicinal use of serrulatane diterpenes” (The University of Sydney, priority 2016, dated 2022)", "key": {"RKO-AS45-1": {"tested_on": "RKO-AS45-1", "experiment": "OncoPanel cell proliferation assay (10-day)", "type": "cell-based, human", "details": "for EC50 / GI50 / IC50: Homo sapiens, RKOAS451, RKO-AS45-1, Colon; for EC50: read-out: Cell Count EC50; for GI50: read-out: Cell Count GI50; for IC50: read-out: Cell Count IC50"}, "Hs 729": {"tested_on": "Hs 729", "experiment": "OncoPanel cell proliferation assay (10-day)", "type": "cell-based, human", "details": "for EC50 / GI50 / IC50: Homo sapiens, Hs 729, Soft Tissue - Sarcoma; for EC50: read-out: Cell Count EC50; for GI50: read-out: Cell Count GI50; for IC50: read-out: Cell Count IC50"}}}
{"compound": "CC(C)=CCC[C@H](CO)[C@@H]1CC[C@@H](C)c2c1cc(C)c(O)c2O", "note": "[Compound 1, 7,8,18-trihydroxyserrulat-14-ene]", "values": [{"measurement": "Relative cell count (%) Mean", "setting": "RKO-AS45-1; 3.00E+00 microM", "value": 7.6, "unit": "%"}, {"measurement": "Relative cell count (%) Mean", "setting": "RKO-AS45-1; 3.00E+01 microM", "value": 0.1, "unit": "%"}, {"measurement": "Relative cell count (%) Mean", "setting": "RKO-AS45-1; 3.01E−01 microM", "value": 90.0, "unit": "%"}, {"measurement": "Relative cell count (%) Mean", "setting": "RKO-AS45-1; 3.01E−02 microM", "value": 86.2, "unit": "%"}, {"measurement": "Relative cell count (%) Mean", "setting": "RKO-AS45-1; 3.02E−03 microM", "value": 83.7, "unit": "%"}, {"measurement": "Relative cell count (%) Mean", "setting": "RKO-AS45-1; 9.49E+00 microM", "value": 0.1, "unit": "%"}, {"measurement": "Relative cell count (%) Mean", "setting": "RKO-AS45-1; 9.51E−01 microM", "value": 72.1, "unit": "%"}, {"measurement": "Relative cell count (%) Mean", "setting": "RKO-AS45-1; 9.52E−02 microM", "value": 80.5, "unit": "%"}, {"measurement": "Relative cell count (%) Mean", "setting": "RKO-AS45-1; 9.53E−03 microM", "value": 88.3, "unit": "%"}, {"measurement": "Relative cell count (%) Mean", "setting": "RKO-AS45-1; 9.55E−04 microM", "value": 95.4, "unit": "%"}, {"measurement": "EC50", "setting": "RKO-AS45-1", "value": 1.5, "unit": "µM"}, {"measurement": "GI50", "setting": "RKO-AS45-1", "value": 1.5, "unit": "µM"}, {"measurement": "IC50", "setting": "RKO-AS45-1", "value": 1.5, "unit": "µM"}, {"measurement": "EC50", "setting": "Hs 729", "value": 2.77, "unit": "µM"}, {"measurement": "GI50", "setting": "Hs 729", "value": 2.67, "unit": "µM"}, {"measurement": "IC50", "setting": "Hs 729", "value": 2.78, "unit": "µM"}, {"measurement": "Relative cell count (%) Mean", "setting": "Hs 729; Hs 729, 3.00E+00 microM", "value": 46.0, "unit": "%"}, {"measurement": "Relative cell count (%) Mean", "setting": "Hs 729; Hs 729, 3.00E+01 microM", "value": 1.0, "unit": "%"}, {"measurement": "Relative cell count (%) Mean", "setting": "Hs 729; Hs 729, 3.01E−01 microM", "value": 99.4, "unit": "%"}, {"measurement": "Relative cell count (%) Mean", "setting": "Hs 729; Hs 729, 3.01E−02 microM", "value": 107.0, "unit": "%"}, {"measurement": "Relative cell count (%) Mean", "setting": "Hs 729; Hs 729, 3.02E−03 microM", "value": 103.0, "unit": "%"}, {"measurement": "Relative cell count (%) Mean", "setting": "Hs 729; Hs 729, 9.49E+00 microM", "value": 3.2, "unit": "%"}, {"measurement": "Relative cell count (%) Mean", "setting": "Hs 729; Hs 729, 9.51E−01 microM", "value": 98.9, "unit": "%"}, {"measurement": "Relative cell count (%) Mean", "setting": "Hs 729; Hs 729, 9.52E−02 microM", "value": 99.9, "unit": "%"}, {"measurement": "Relative cell count (%) Mean", "setting": "Hs 729; Hs 729, 9.53E−03 microM", "value": 108.7, "unit": "%"}, {"measurement": "Relative cell count (%) Mean", "setting": "Hs 729; Hs 729, 9.55E−04 microM", "value": 100.6, "unit": "%"}]}
{"compound": "CC(C)=CCC[C@@H]1C(O)Oc2c(C)cc(O)c3c2[C@H]1CC[C@H]3C", "note": "(some centres unmarked) [Compound 2, 5,18-epoxyserrulat-14-en-8,18-diol]", "values": [{"measurement": "EC50", "setting": "RKO-AS45-1", "value": 9.64, "unit": "µM"}, {"measurement": "GI50", "setting": "RKO-AS45-1", "value": 9.62, "unit": "µM"}, {"measurement": "IC50", "setting": "RKO-AS45-1", "value": 9.64, "unit": "µM"}, {"measurement": "EC50", "setting": "Hs 729", "value": 23.3, "unit": "µM"}, {"measurement": "GI50", "setting": "Hs 729", "value": 21.8, "unit": "µM"}, {"measurement": "IC50", "setting": "Hs 729", "value": 23.3, "unit": "µM"}]}
{"compound": "CC(C)=CCC[C@H](C)[C@@H]1CC[C@@H](C)c2c1cc(C)c(O)c2O", "note": "[Compound 4, 7,8-dihydroxyserrulat-14-ene]", "values": [{"measurement": "EC50", "setting": "RKO-AS45-1", "value": 12.8, "unit": "µM"}, {"measurement": "GI50", "setting": "RKO-AS45-1", "value": 12.8, "unit": "µM"}, {"measurement": "IC50", "setting": "RKO-AS45-1", "value": 12.8, "unit": "µM"}, {"measurement": "EC50", "setting": "Hs 729", "value": 11.9, "unit": "µM"}, {"measurement": "GI50", "setting": "Hs 729", "value": 11.6, "unit": "µM"}, {"measurement": "IC50", "setting": "Hs 729", "value": 11.9, "unit": "µM"}]}
